Tests used:
c4 = tested on: T1, c4; conditions: read-out: Km (μM) / - Maltose; 10 mM sodium phosphate pH 7.0, 37°C, without maltose; BLA domain site; substrate range 100-400 µM, above the Km
T1 construct: gene malE

Ph8 = tested on: T2, Ph8; conditions: read-out: Km (μM) / - Maltose; 10 mM sodium phosphate pH 7.0, 37°C, without maltose; BLA domain site
T2 construct: gene malE

`CC1(C)S[C@@H]2[C@H](NC(=O)[C@H](N)c3ccccc3)C(=O)N2[C@H]1C(=O)O` [ampicillin] showed a Km (c4) of 73 ± 4 µM and a Km (Ph8) of 730 ± 120 µM.

— PMC3214044, “In Vitro Recombination of Non-Homologous Genes Can Result in Gene Fusions that Confer a Switching Phenotype to Cells” (PLoS ONE, 2011)
